{
  "source": "paper PMC11327220",
  "about": "(Bioscience Reports, 2024)",
  "key": {"SARS-CoV-2 3CLpro [1]": {"target": "T1, SARS-CoV-2 3CLpro (Severe acute respiratory syndrome coronavirus 2, UniProt P0DTD1)", "assay": "biochemical", "format": "biochemical"}, "3CLpro": {"target": "3CLpro (Severe acute respiratory syndrome coronavirus 2, UniProt P0DTD1)", "format": "binding, SARS-CoV-2"}, "MERS 3CLpro": {"target": "MERS 3CLpro (Middle East respiratory syndrome-related coronavirus, UniProt K9N7C7)", "sequence (K9N7C7 3248-3553 limits assumed)": "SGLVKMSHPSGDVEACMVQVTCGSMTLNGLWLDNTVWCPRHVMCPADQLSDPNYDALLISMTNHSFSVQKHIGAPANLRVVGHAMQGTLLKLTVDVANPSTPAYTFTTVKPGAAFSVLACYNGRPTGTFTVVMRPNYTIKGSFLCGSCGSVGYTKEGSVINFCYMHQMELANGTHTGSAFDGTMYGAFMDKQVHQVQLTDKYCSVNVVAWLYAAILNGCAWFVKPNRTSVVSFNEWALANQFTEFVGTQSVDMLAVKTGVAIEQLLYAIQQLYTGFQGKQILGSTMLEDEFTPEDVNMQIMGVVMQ", "assay": "biochemical"}, "SARS-CoV-1 3CLpro": {"target": "SARS-CoV-1 3CLpro (Severe acute respiratory syndrome coronavirus, UniProt P0C6X7)", "assay": "biochemical"}, "SARS-CoV-2 3CLpro [2]": {"target": "T1, SARS-CoV-2 3CLpro", "assay": "Inhibition kinetics of luteolin (competitive inhibition fit)", "format": "biochemical"}, "[3]": {"tested_on": "SARS-CoV-2 (ancestral strain A2.2)", "assay": "microbe, parasite or virus in culture", "format": "cell-based", "conditions": "Severe acute respiratory syndrome coronavirus 2, HEK-293T, read-out: IC50 in the live virus assay"}, "[4]": {"conditions": "read-out: IC50 of micronutrients against 3CLpro"}, "[5]": {"conditions": "additive in the absence of luteolin"}, "[6]": {"conditions": "one additive: 100 µM luteolin, 3.5 mM magnesium, 2.3 mM manganese, 0.3 mM zinc or 0.3 mM vitamin C, free enzyme 133 ± 4"}, "[7]": {"conditions": "2.3 mM manganese, 3.5 mM magnesium or 0.3 mM vitamin C, no luteolin"}, "[8]": {"conditions": "0.3 mM vitamin C in the presence of 100 µM luteolin"}, "[9]": {"conditions": "versus luteolin without micronutrients"}},
  "note": "Several values for one entry are separate records, joined by “and”; a condition that tells them apart may be missing. Identical values can stand only once. Like-named read-outs stand apart in the source and are kept apart here.",
  "data": [
    {"smiles": "[Ca+2].[Cl-].[Cl-]", "note": "[CaCl2]", "values": [
      {"measurement": "IC50", "setting": "SARS-CoV-2 3CLpro [1]; [4]", "value": "1900 ± 200", "unit": "µM"}
    ]},
    {"smiles": "O=c1c2ccccc2[se]n1-c1ccccc1", "note": "[Ebselen, reference compound]", "values": [
      {"measurement": "percentage inhibition of SARS-CoV-2 3CLpro", "setting": "SARS-CoV-2 3CLpro [1]", "value": "completely inhibits"}
    ]},
    {"smiles": "[Cl-].[Cl-].[Mg+2]", "note": "[MgCl2]", "values": [
      {"measurement": "IC50", "setting": "SARS-CoV-2 3CLpro [1]; [4]", "value": "24000 ± 1100", "unit": "µM"},
      {"measurement": "Tm of the first transition (Tm1) of 3CLpro", "setting": "3CLpro", "value": "35 ± 0.3", "unit": "°C"},
      {"measurement": "Tm of the second transition (Tm2) of 3CLpro", "setting": "3CLpro", "value": "45 ± 0.5", "unit": "°C"},
      {"measurement": "fold increase of ΔHcal over free 3CLpro", "setting": "3CLpro; [5]", "value": 2, "unit": "fold"},
      {"measurement": "calorimetric enthalpy (ΔHcal) of unfolding of 3CLpro", "setting": "3CLpro; [6]", "value": "63.1 ± 3.59", "unit": "kcal/mol"}
    ]},
    {"smiles": "[Cl][Mn][Cl]", "note": "[MnCl2]", "values": [
      {"measurement": "IC50", "setting": "SARS-CoV-2 3CLpro [1]; [4]", "value": "2300 ± 200", "unit": "µM"},
      {"measurement": "Tm of the first transition (Tm1) of 3CLpro", "setting": "3CLpro; [7]", "value": "35 ± 0.3", "unit": "°C"},
      {"measurement": "Tm of the second transition (Tm2) of 3CLpro", "setting": "3CLpro; [7]", "value": "45 ± 0.5", "unit": "°C"},
      {"measurement": "fold increase of ΔHcal over free 3CLpro", "setting": "3CLpro; [5]", "value": 3, "unit": "fold"},
      {"measurement": "calorimetric enthalpy (ΔHcal) of unfolding of 3CLpro", "setting": "3CLpro; [6]", "value": "85.1 ± 10.8", "unit": "kcal/mol"}
    ]},
    {"smiles": "O=C1O[C@H]([C@@H](O)CO)C(O)=C1O", "note": "[Vitamin C, L-ascorbate]", "values": [
      {"measurement": "IC50", "setting": "SARS-CoV-2 3CLpro [1]", "value": "800 ± 20", "unit": "µM"},
      {"measurement": "Tm of the first transition (Tm1) of 3CLpro", "setting": "3CLpro", "value": 34, "unit": "°C"},
      {"measurement": "Tm of the second transition (Tm2) of 3CLpro", "setting": "3CLpro", "value": "45 ± 0.7", "unit": "°C"},
      {"measurement": "calorimetric enthalpy (ΔHcal) of unfolding of 3CLpro", "setting": "3CLpro; [8]", "value": "307.8 ± 32.58", "unit": "kcal/mol"},
      {"measurement": "fold increase of ΔHcal over free 3CLpro", "setting": "3CLpro; [8]", "value": 10, "unit": "fold"},
      {"measurement": "Tm of the late transition (Tm3) of 3CLpro", "setting": "3CLpro; 0.3 mM vitamin C, no luteolin", "value": "56 ± 0.2", "unit": "°C"},
      {"measurement": "fold increase of ΔHcal over free 3CLpro", "setting": "3CLpro; [5]", "value": 8, "unit": "fold"},
      {"measurement": "calorimetric enthalpy (ΔHcal) of unfolding of 3CLpro", "setting": "3CLpro; [6]", "value": "247.1 ± 13.9", "unit": "kcal/mol"}
    ]},
    {"smiles": "[Cl-].[Cl-].[Zn+2]", "note": "[ZnCl2]", "values": [
      {"measurement": "IC50", "setting": "SARS-CoV-2 3CLpro [1]; [4]", "value": "1100 ± 200", "unit": "µM"},
      {"measurement": "decrease of Tm compared with apo-3CLpro", "setting": "3CLpro", "value": "approximately 6 °C"},
      {"measurement": "melting point (Tm) of 3CLpro, single transition", "setting": "3CLpro", "value": "41 ± 0.4", "unit": "°C"},
      {"measurement": "fold increase of ΔHcal over free 3CLpro", "setting": "3CLpro; [5]", "value": 4, "unit": "fold"},
      {"measurement": "calorimetric enthalpy (ΔHcal) of unfolding of 3CLpro", "setting": "3CLpro; [6]", "value": "108 ± 12", "unit": "kcal/mol"}
    ]},
    {"smiles": "O=c1cc(-c2ccc(O)c(O)c2)oc2cc(O)cc(O)c12", "note": "[luteolin, 2-(3,4-dihydroxyphenyl)-5,7-dihydroxy-4H-chromen-4-one]", "values": [
      {"measurement": "fold decrease of the IC50 of luteolin with the combination of vitamin C and magnesium", "setting": "SARS-CoV-2 3CLpro [1]", "value": 3, "unit": "fold"},
      {"measurement": "fold decrease of the IC50 of luteolin with the combination of zinc and magnesium", "setting": "SARS-CoV-2 3CLpro [1]", "value": 2, "unit": "fold"},
      {"measurement": "IC50", "setting": "SARS-CoV-2 3CLpro [1]; 2 µM 3CLpro, 60 µM peptide substrate, absence of micronutrients", "value": 78, "unit": "µM"},
      {"measurement": "inhibition at 25 µM", "setting": "SARS-CoV-2 3CLpro [1]; read-out: percentage inhibition of SARS-CoV-2 3CLpro", "value": 41, "unit": "%"},
      {"measurement": "fold decrease of the IC50 of luteolin in the presence of magnesium", "setting": "SARS-CoV-2 3CLpro [1]; [9]", "value": "1.7 fold and 2 fold"},
      {"measurement": "fold decrease of the IC50 of luteolin in the presence of magnesium, zinc, and vitamin C", "setting": "SARS-CoV-2 3CLpro [1]; [9]", "value": 10, "unit": "fold"},
      {"measurement": "fold increase of the IC50 of luteolin in the presence of calcium", "setting": "SARS-CoV-2 3CLpro [1]; [9]", "value": 2, "unit": "fold"},
      {"measurement": "fold increase of the IC50 of luteolin in the presence of zinc", "setting": "SARS-CoV-2 3CLpro [1]; [9]", "value": 2, "unit": "fold"},
      {"measurement": "IC50", "setting": "MERS 3CLpro", "value": "388 ± 59", "unit": "µM"},
      {"measurement": "IC50", "setting": "SARS-CoV-1 3CLpro", "value": "711 ± 130", "unit": "µM"},
      {"measurement": "Ki", "setting": "SARS-CoV-2 3CLpro [2]", "value": "93 ± 12", "unit": "µM"},
      {"measurement": "fold increase of Ka over Km of the peptide substrate in the absence of inhibitor", "setting": "SARS-CoV-2 3CLpro [2]; in the presence of luteolin", "value": "~6", "unit": "fold"},
      {"measurement": "apparent Michaelis constant (Ka) for the peptide substrate in the presence of luteolin", "setting": "SARS-CoV-2 3CLpro [2]; luteolin 40-400 µM, Km without inhibitor 66 ± 7 µM", "value": "406 ± 48", "unit": "µM"},
      {"measurement": "inhibition pattern", "setting": "SARS-CoV-2 3CLpro [2]; luteolin versus the peptide substrate", "value": "competitive inhibition"},
      {"measurement": "IC50", "setting": "[3]", "value": "90 ± 11", "unit": "µM"},
      {"measurement": "melting point (Tm) of 3CLpro, single transition", "setting": "3CLpro; 25 μM 3CLpro with 100 µM luteolin or 0.3 mM zinc, apo-3CLpro 46.7 ± 0.1", "value": "46.7 ± 0.1", "unit": "°C"},
      {"measurement": "effect of adding luteolin on the thermograms of 3CLpro in the presence of metal ions", "setting": "3CLpro; 100 µM luteolin with metal ions", "value": "minimal effect"},
      {"measurement": "calorimetric enthalpy (ΔHcal) of unfolding of 3CLpro", "setting": "3CLpro; [6]", "value": "24.1 ± 3.59", "unit": "kcal/mol"}
    ]}
  ]
}
